This is an account of results in US20240181000A1, “LGG-DERIVED PEPTIDES AND METHODS OF USE THEREOF” (Ohio State Innovation Foundation, priority 2021, published 2024).

Read-outs that look alike come from different tables or passages of the source. No end group written: not given here.

The test system of one data set is Salmonella Javiana. Type of data set: cell-based. Here is the method: (§1) Peptide protection against varied Salmonella serovars: To further test the spectrum of the peptides anti-Salmonella capabilities, eight additional Salmonella serovars commonly implicated in foodborne illness (S. Anatum, S. Albany, S. Brenderup, S. Javiana, S. Heidelberg, S. Muenchen, S. Newport, S. Saintpaul) were analyzed. P1, P2, and P4 (selected based on dose response assay results) were added to the assay at their MICs to determine their effect on different serovars. Inhibition was determined using criteria from above.

The subject of data set [1] is APEC O78. The format is cell-based, E. coli. Here is the method:
Anti-APEC activity determination: The anti-APEC activity of peptides was determined in LB broth following CLSI guidelines. Briefly, overnight grown APEC O78 was adjusted to 5×10^5 CFU/mL concentration in fresh LB media. One-hundred microliters of APEC suspension was aliquoted into the wells of the 96-well plate. Peptides were added to the wells at 6 mM and 12 mM concentrations and incubated at 37° C. in TECAN Sunrise™ absorbance microplate reader with kinetic absorbance measurement set at every 30 mins for 12 h. Sterile media and DMSO (solvent) were used as controls. The growth inhibitory activity of the peptides against APEC was calculated using the formula: (OD600 DMSO treated well−OD600 peptide treated well)/OD600 DMSO treated well×100%.
The minimum inhibitory concentration (MIC) was determined for selected peptides (P1, P2, P3, and P4) using similar assay as above. Peptides were added to the wells of the 96-well plate at 6 mM, 9 mM, 12 mM, 15 mM, and 18 mM concentrations. The peptide concentration at which there is no visible APEC growth (no OD increase) was determined as MIC. Two independent experiments were conducted.
Arginine and lysine substituted peptide analogues: The non-essential amino acid residues identified in each peptide were substituted with arginine/lysine to test whether these substitutions enhance the anti-APEC activity of peptides. The MICs of arginine and lysine substituted peptide analogues ([…] (SEQ ID NO:37), […] (SEQ ID NO:38), […] (SEQ ID NO:39), KDENK (SEQ ID NO:41), PDEKK (SEQ ID NO:42), KDEKK (SEQ ID NO:43), KHTAPK (SEQ ID NO:45), VKTAPK (SEQ ID NO:46), VHTKPK (SEQ ID NO:47), and KKTKPK (SEQ ID NO:48)) were determined as above and compared with original peptides.

In data set [2] the test system is APEC. The format is in vivo, chickens. To be noted: in vivo. From the text:
FIGS. 57A-57D show the APEC load of chickens (at 7 dpi [days post infection]) treated with either peptides P-1 or P-2.

In data set [3] the test system is APEC. As to conditions: in vivo. Here is the method:
FIGS. 58A-58B show the APEC load after treatment 8 days dpi with LGG and 50 mg/mL of peptides in drinking water.

The next data set deals with Salmonella Saintpaul. The data set is described as follows: MIC against serovars. Type of data set: cell-based. The method, then:
as §1

For the next data set, the system named is Salmonella Brenderup. The data set is described as follows: MIC against serovars. The format is cell-based. The method, then:
as §1

A further data set deals with multiple APEC serotypes. Type of data set: cell-based, E. coli. The method, then: Anti-APEC spectrum determination: Peptides (P1, P2, and P3) were tested against multiple APEC serotypes/strains to determine their spectrum of activity. Peptides were added at their MICs and the growth inhibitory activity of the peptides was determined as described above.
The subject of data set [4] is APEC O78. The data set is described as follows: Agar-well diffusion assay. The format is cell-based, E. coli. To be noted: whole culture, 24 h. Here is the method:
Agar-well diffusion assay: To determine the inhibitory activity of commensal and probiotic bacteria against APEC, agar-well diffusion assay was conducted as described previously. Briefly, LB agar plate was spread with 100 μL of APEC O78 (10^7 CFU/mL) and 100 μL of fully grown stationary phase whole cultures (adjusted to OD600: 1) of commensal and probiotic bacteria were aliquoted into the wells bored in the agar plate. The plate was incubated at 37° C., and zone of inhibition was measured at 12 h and 24 h post-incubation. The inhibitory activity of L. rhamnosus GG and B. lactis Bb12 was also tested with different culture volumes (200 μL, 150 μL and 50 μL) and against other APEC serotypes as described above. Assay was also conducted with cell-free supernatants (CF Ss) of L. rhamnosus GG and B. lactis Bb12 and supernatant-free L. rhamnosus GG and B. lactis Bb12 itself. CFSs were prepared by centrifugation of whole cultures at 10,000×g for 10 min at 4° C. followed by filtration through 0.22 μm filter. The supernatant-free cultures were washed once and resuspended in PBS to check the activity of L. rhamnosus GG and B. lactis Bb12 itself. Two independent experiments were conducted. […]
A general note: A growth-free zone around the sample is the usual read-out of agar diffusion tests.

The MIC is the lowest concentration that inhibits growth of the organism. A word on the MIC50: it is the lowest concentration that inhibits either 50% of growth or 50% of the strains tested, depending on the study. A higher MIC50 goes with weaker potency. With NPSRQERR [Peptide P1], the MIC with Salmonella Javiana, with Salmonella Saintpaul and with Salmonella Brenderup was 18 mM in each case. Further, the “MIC50” value against APEC O78 [1] stood at 14.7 mM. The Bodyweight entry with APEC [2] and in the data set on APEC [3] was “no significant effect” in each case. Also, in the data set on multiple APEC serotypes, the “Growth inhibition against APEC serotypes” value was 95.1-100%.
Turning to Bifidobacterium longum, the Zone of inhibition with APEC O78 [4] came to 0.0 ± 0.0 mm.
